Source: PMC7115377 (European Journal of Medicinal Chemistry, 2018)
Where two headings read alike, the source gives them in different places.

Legend:
HeLa cells = conditions: microscopy
influenza B/Ned/537/05 [1] = assay: Influenza B antiviral assay in MDCK cells; format: cell-based; conditions: Influenza B virus, read-out: EC50 Influenza B, microscopic method
influenza B virus = conditions: read-out: EC50 influenza B; previous series; ref [21]; cited from earlier work
influenza B/Ned/537/05 [2] = assay: Influenza B antiviral assay in MDCK cells; format: cell-based; conditions: Influenza B virus, read-out: mean EC50 anti-influenza B activity
[3] = test system: Respiratory syncytial virus (RSV; strain Long); assay: microbe, parasite or virus in culture; format: cell-based; conditions: human respiratory syncytial virus, HeLa, read-out: EC50 RSV

Structure (SMILES) | Cytotoxicity MCC (HeLa cells) | further results
CC(C)(C)OC(=O)N1CCC2(CC1)N=C(N)N=C(N)N2c1cccc(Cl)c1 [Compound 2, Tert-butyl 1-(3-Chlorophenyl)-2,4-diamino-1,3,5,9-tetraazaspiro[5.5]undeca-2,4-diene-9-carboxylate] | >100 µM | 
NC1=NC2(CCN(C(=O)Nc3ccc(F)cc3)CC2)N(c2cccc(Cl)c2)C(N)=N1 [Compound 6, 1-(3-Chlorophenyl)-2,4-diamino-9-[N-(4-fluorophenyl)carbamoyl]-1,3,5,9-tetraazaspiro-[5.5]undeca −2,4-diene] | ≥100 µM | EC50 (influenza B/Ned/537/05 [1]): 350 nM; CC50 fold higher than corresponding MCC (MDCK cells): 319 fold
CC(=O)N[C@H]1[C@H]([C@H](O)[C@H](O)CO)OC(C(=O)O)=C[C@@H]1NC(=N)N [Zanamivir] |  | EC50 (influenza B virus): 60 nM
CCCCC(=O)N1CCC2(CC1)N=C(N)N=C(N)N2c1cccc(OC)c1 [Compound 9, 2,4-Diamino-1-(3-methoxyphenyl)-9-(1-oxopent-1-yl)-1,3,5,9-tetraazaspiro[5.5]undeca-2,4-diene] | >100 µM | 
NC1=NC2(CCN(C(=O)C3CCC3)CC2)N(c2cccc(Cl)c2)C(N)=N1 [Compound 3, 9-Cyclobutylcarbonyl-1-(3-chlorophenyl)-2,4-diamino-1,3,5,9-tetraazaspiro[5.5]undeca-2,4-diene] | >100 µM | 
Cc1ccc(C(=O)N2CCC3(CC2)N=C(N)N=C(N)N3c2cccc(Cl)c2)cc1 [Compound 4, 1-(3-Chlorophenyl)-2,4-diamino-9-(p-tolylcarbonyl)-1,3,5,9-tetraazaspiro[5.5]undeca-2,4-diene] | ≥100 µM | EC50 (influenza B/Ned/537/05 [2]): ~200 nM; CC50 fold higher than corresponding MCC (MDCK cells): 22 fold
CC(C)(C)OC(=O)N1CCC2(CC1)N=C(N)N=C(N)N2Cc1cccc(Cl)c1 [Compound 11, Tert-butyl 1-(3-Chlorobenzyl)-2,4-diamino-1,3,5,9-tetraazaspiro[5.5]undeca-2,4-diene-9-carboxylate] | >100 µM | 
COc1cccc(N2C(N)=NC(N)=NC23CCN(C(=O)OC(C)(C)C)CC3)c1 [Compound 8, Tert-butyl 2,4-diamino-1-(3-methoxyphenyl)-1,3,5,9-tetraazaspiro[5.5]undeca-2,4-diene-9-carboxylate] | >100 µM | 
NC1=NC2(CCN(C(=O)c3ccc4ccccc4c3)CC2)N(c2cccc(Cl)c2)C(N)=N1 [Compound 5, 1-(3-Chlorophenyl)-2,4-diamino-9-[(naphthalen-2-yl)carbonyl]-1,3,5,9-tetraazaspiro-[5.5]undeca-2,4-diene] | ≥100 µM | 
COc1cccc(N2C(N)=NC(N)=NC23CCNCC3)c1 [Compound 7, 2,4-Diamino-1-(3-methoxyphenyl)-1,3,5,9-tetraazaspiro[5.5]undeca-2,4-diene] | >100 µM | 
CCS(=O)(=O)N1CCC2(CC1)N=C(N)N=C(N)N2CCOC [Compound 20, 2,4-Diamino-9-(ethylsulfonyl)-1-(2-methoxyethyl)-1,3,5,9-tetraazaspiro[5.5]undeca-2,4-diene] | >100 µM | 
COCCN1C(N)=NC(N)=NC12CCN(C(=O)NC1CCC(C)CC1)CC2 (centres unmarked) [Compound 18, 2,4-Diamino-9-[(4-methylcyclohexyl)carbamoyl]-1-(2-methoxyethyl)-1,3,5,9-tetraazaspiro-[5.5]undeca-2,4-diene] | >100 µM | 
NC(=O)c1ncn([C@@H]2O[C@H](CO)[C@@H](O)[C@H]2O)n1 [Ribavirin] |  | EC50 [3]: 5800 nM
COc1cccc(N2C(N)=NC(N)=NC23CCN(C(=O)c2ccc(C(F)(F)F)cc2C)CC3)c1 [Compound 10, 2,4-Diamino-1-(3-methoxyphenyl)-9-[(2-methyl-4-(trifluoromethyl)phenyl)carbonyl]-1,3,5,9-tetraazaspiro[5.5]undeca-2,4-diene] | >100 µM | 
NC1=NC2(CCNCC2)N(c2cccc(Cl)c2)C(N)=N1 [Compound 1, 1-(3-Chlorophenyl)-2,4-diamino-1,3,5,9-tetraazaspiro[5.5]undeca-2,4-diene] | >100 µM | 
COCCN1C(N)=NC(N)=NC12CCN(S(=O)(=O)c1ccccc1)CC2 [Compound 21, 2,4-Diamino-9-(phenylsulfonyl)-1-(2-methoxyethyl)-1,3,5,9-tetraazaspiro[5.5]undeca-2,4-diene] | >100 µM | 
